In patent publication US6927221B2, “Tricyclic fused heterocyclic compound, process for preparing it and medicament comprising it” (Eisai Co., Ltd., priority 1999, dated 2005):
pIC50: −log10 of the molar value. Structures can show the parent of a compound that is named as a salt. Where two headings read alike, the source gives them in different places.

Tests used:
[1] = molecular target: T1, human CRFR1 (Homo sapiens, UniProt P34998); experiment: CRFR binding experiment (125I-sauvagine, SPA); settings: membrane fraction of cell expressing human CRFR1, 40 pM 125I-sauvagine, room temperature, two hours; read-out: CRF1 receptor binding ability IC50
T1 construct: The full length gene of CRFR^1 was obtained by a PCT method using human brain (QuickClone™ Clontech) as cDNA library; expressed in transfected cells; host or cells: Hek 283 cell (so in the source)
T1 sequence (P34998 24-415): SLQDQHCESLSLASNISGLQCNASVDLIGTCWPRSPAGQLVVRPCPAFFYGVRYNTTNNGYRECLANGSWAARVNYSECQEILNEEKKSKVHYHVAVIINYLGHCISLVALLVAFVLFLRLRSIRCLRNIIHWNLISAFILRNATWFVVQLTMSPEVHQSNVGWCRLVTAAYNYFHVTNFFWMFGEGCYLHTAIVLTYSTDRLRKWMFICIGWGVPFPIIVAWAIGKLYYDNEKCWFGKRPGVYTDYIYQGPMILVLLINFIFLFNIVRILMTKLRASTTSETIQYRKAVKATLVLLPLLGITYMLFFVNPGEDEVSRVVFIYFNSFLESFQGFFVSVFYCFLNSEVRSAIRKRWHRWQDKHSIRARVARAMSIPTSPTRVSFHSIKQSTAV
Protocol: • (1) Preparation of CRFR expressing cell: As an experiment material for the CRFR binding experiment, a membrane fraction of a cell which expressed highly human CRFR1. CRFR expressing cell was prepared as follows. The full length gene of CRFR^1 was obtained by a PCT method using human brain (QuickClone™ Clontech) as cDNA library. The resulting DNA fragment was inserted into a cloning vector to confirm the base sequence. A cDNA having the correct base sequence was ligated to an expression vector (pcDNA3.1™, Invitrogen). A gene was inserted into […] cell and grown in a cell culturing solution containing G418 (1 mg/ml) to obtain a resistance cell, into which a CRFR^1 expression vector was cloned by a limitation diluting method. A clone having the high binding ability of membrane and sauvagine per unit protein was finally selected from cloned cells by a binding experiment shown by the method shown below, which was used for an experiment. • (2) Preparation of a membrane fraction: G418 resistant cells into which a gene for CRFR^1 was introduced were collected, and cell rupture was performed by an ultrasound generator with a sonicate buffer (D-PBS-10 mM MgCl2, 2 mM EGTA). A suspension after ultrasound rupture was centrifuged (46,000×g, 10 minutes), the sediment thereof was further resuspended with a sonicate buffer, and the same procedures were related. Finally, the sediment was suspended in a binding buffer (D-PBS-10 mM MgCl2, 2 mM EGTA, 1.5% BSA, 0.15 mM bacitracin, 1× protease inhibitor cocktail (COMPLETE™, Boehringer), to adjust the protein concentration at 1.6 mg/ml, which was used as a membrane fraction. • (3) Binding experiment: Binding experiment with sauvagine was performed using a 96-well plate and SP™ (Amersham pharmacia) An experiment was according to the specification of SPA beads. […] of a membrane fraction protein, 0.5 mg of beads and 40 pM ^125I-sauvaging (Amersham pharmacia) were allowed to stand at room temperature for two hours in the presence a test compound, centrifuged (1,000×g, 5 minutes), and then the radioactivity of each well was measured with TopCount™ (Packard). • (4) Calculation of the binding ability: The radioactivity as the non-specific binding when 1,000-fold excessive amount of non-radioactive sauvagine was added was substacted from each value, the radioactivity where no test material is added is regarded as 100% (control), and each value is shown by % (% of control). The concentration showing 50% in % (% of control) was obtained from a graph where the concentration test material is plotted on an abscissa axis and % (% of control) is plotted on a coordinate axis and IC50 value was calculated (Table 1)

[2] = test system: AtT-20 cell; experiment: Experiment for measuring adenylate cyclase activity using AtT-20 cell (CRF-induced cAMP); assay type: cell-based, mouse; settings: 1 mM IBMX, intracellular cAMP by ELISA, read-out: adenylate cyclase ability IC50
Text: Experiment for Measuring Adenyrate Cyclase the Activity Using AtT-20 Cell
• (1) Test procedures: AtT-20 cell is a cell strain derived from mouse pytuitari gland tumor, it is known that the intracellular adenyrate cyclase system is activated in response to corticotrophin release hormone (CRF), to produce cyclic AMP (cAMP), releasing adrenocortical hormone (ACTH) (Biochem. Piophys. Res. Com. 106. 1364-1371, 1982). In this experiment, the cell 1×10^5) suspended in D-MEM medium (0.1% FPS), seeded on a 96-well plate, a phosphodiesterase inhibitor (IBMX, Calbiochem) was added to the final concentration of 1 mM, which was cultured at 37° C. for 30 minutes. A diluted test compound solution and CRF (30 nM) were added, which was further cultured at 37° C. for 10 minutes, cells were collected by centrifugation (500×g, 5 minutes), cells were lysed with a lysis buffer (Amersham Pharmacia), and an amount of intracellular cAMP produced was quantitated using the ELISA method. For ELISA, cAMP EIA system (BIOTRAK™ Amersham Pharmacia) was used. • (2) Calculation of adenyrate cyclase activity inhibitory ability: Treatment of the resulting data was carried out as follows. An amount of cAMP produced by a cell to which 30 nM CRF was added is regarded as 100% (control) and a value of each sample is expressed as % (% of control). The concentration showing 50% in % (% of control) was obtained from a graph where the concentration of a test material is plotted on an abscissa axis and % (% of control) is plotted on a coordinate and IC50 value was calculated (Table 2).

SMILES | pIC50 [1] | pIC50 ([2]; Mus musculus, AtT20, 30 nM CRF) | pIC50 ([2]; 30 nM CRF)
CCC(CC)N1CCc2c(C)nc3c(-c4c(C)cc(C)cc4C)c(C)nn3c21 [Example 1, 8-(1-Ethylpropyl)-3-mesityl-2,5-dimethyl-7,8-dihydro-6H-pyrazolo[1,5-a]pyrrolo[3,2-e]pyrimidine hydrochloride] | 7.00 | 6.05 | –
CCCCN1CCc2c(C)nc3c(-c4c(C)cc(C)cc4C)c(C)nn3c21 [Example 2, 8-Butyl-3-mesityl-2,5-dimethyl-7,8-dihydro-pyrazolo[1,5-a]pyrrolo[3,2-e]pyrimidine hydrochloride] | 6.30 | – | –
CCCC(CCC)N1CCc2c(C)nc3c(-c4cnc(N(C)C)cc4C)c(C)nn3c21 [Example 3, N-5-[2,5-Dimethyl-8-(1-propylbutyl)-7,8-dihydro-6H-pyrazolo[1,5-a]pyrrolo[3,2-e]pyrimidin-3-yl]-4-methyl-2-pyridyl-N,N-dimethylamine hydrochloride] | 6.22 | – | –
CCCC(CCC)N1CCc2c(C)nc3c(-c4c(C)cc(C)cc4C)c(C)nn3c21 [Example 6, 3-Mesityl-2,5-dimethyl-8-(1-propylbutyl)-7,8-dihydro-6H-pyrazolo[1,5-a]pyrrolo[3,2]-pyrimidine hydrochloride] | 6.00 | – | –
CCC(CC)N1CCCc2c(C)nc3c(-c4c(C)cc(C)cc4C)c(C)nn3c21 [Example 12, 9-(1-Ethylpropyl)-3-mesityl-2,5-dimethyl-6,7,8,9-tetrahydropyrazolo[1,5-a]pyrido[3,2-e]pyrimidine] | 5.82 | – | –
CCC(CC)N1c2c(c(C)nc3c(-c4c(C)cc(C)cc4C)c(C)nn23)CC1C (stereo not shown) [Example 13, 8-(1-Ethylpropyl)-mesityl-2,5,7-trimethyl-7,8-dihydro-6H-pyrazolo[1,5-a]pyrrolo[3,2-e]pyrimidine] | 5.60 | – | 5.82
CCc1nn2c3c(c(C)nc2c1-c1c(C)cc(C)cc1C)CCN3C(CC)CC [Example 23, 2-Ethyl-8-(1-ethylpropyl)-3-mesityl-5-methyl-7,8-dihydro-6H-pyrazolo[1,5-a]pyrrolo[3,2-e]pyrimidine] | 5.82 | – | –
CCC(CC)N1CCc2c(C)nc3c(-c4ccc(Cl)cc4Cl)c(C)nn3c21 [Example 33, 3-(2,4-Dichlorophenyl)-8-(1 ethylpropyl)-2,5-dimethyl-7,8-dihydro-6H-pyrazolo[1,5-a]pyrrolo[3,2-e]pyrimidine hydrochloride] | 6.00 | – | –
Cc1cc(C)c(-c2c(C)nn3c4c(c(C)nc23)CCN4CC2CC2)c(C)c1 [Example 38, 8-(Cyclopropylmethyl)-3-mesityl-2,5-dimethyl-7,8-dihydro-6H-pyrazolo[1,5-a]pyrrolo[3,2-e]pyrimidine hydrochloride] | 5.52 | – | –
COCCN1c2c(c(C)nc3c(-c4c(C)cc(C)cc4C)c(C)nn23)CC1C (stereo not shown) [Example 44, 3-Mesityl-8-(2-methoxyethyl)-2,5,7-trimethyl-7,5-dihydro-6H-pyrazolo[1,5-a]pyrrolo[3,2-e]pyrimidine hydrochloride] | 6.40 | – | –
Cc1cc(C)c(-c2c(C)nn3c4c(c(C)nc23)CCN4C2CCCCCC2)c(C)c1 [Example 45, 8-Cycloheptyl-3-mesityl-2,5-dimethyl-7,8-dihydro)-6H-pyrazolo[1,5-a]pyrrolo[3,2-e]pyrimidine hydrochloride] | 5.82 | – | –
CCC(CC)n1ccc2c(C)nc3c(-c4c(C)cc(C)cc4C)c(C)nn3c21 [Example 67, 8-(1-Ethylpropyl)-3-mesityl-2,5-dimethyl-8H-pyrazolo[1,5-a]pyrrolo[3,2-e]pyrimidine] | 6.70 | 5.70 | –
CCCC(=O)N1CCc2c(C)nc3c(-c4c(C)cc(C)cc4C)c(C)nn3c21 [Example 74, 1-(3-Mesityl-2,5-dimethyl-7,8-dihydro-6H-pyrazolo[1,5-a]pyrrolo[3,2-e]pyrimidin-8-yl)-1-butanone] | 5.85 | – | –
